Assay results from patent publication US20150352108A1, “AMINO-PYRIMIDINE COMPOUNDS AS INHIBITORS OF TBK1 AND/OR IKK EPSILON” (Alzheimer's Institute of America, priority 2009, published 2015).
Like-named read-outs stand apart in the source and are kept apart here.

Tests used:
[1] = test system: IKKε-mediated phosphorylation of IRF3; assay: In-situ phosphorylation of IRF3 (pIRF3 Ser396 ELISA) in HEK293T cells cotransfected with IRF3 and IKKε; type: cell-based; details: Homo sapiens, HEK-293T
Method in brief: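 For the IRF3 ELISA, HEK293T cells cotransfected with IRF3 and IKKε were replated at 20,000/well and treated 20 h. Phospho-Ser396 IRF3 was measured by ELISA and normalised to DMSO, with viability checked by CellTiter-Glo. For IRF7, cells transfected with IRF7 and TBK1 were treated overnight, and pSer477/Ser479 IRF7 was detected by Western blot.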

TBK1 = biological target: T1, TBK1 (Homo sapiens, UniProt Q9UHD2); assay: In-vitro TBK1 kinase assay ([γ33]ATP filter-plate); type: biochemical
T1 construct: His-tag; made in house; host or cells: Sf9 insect cells
T1 sequence (Q9UHD2 1-729): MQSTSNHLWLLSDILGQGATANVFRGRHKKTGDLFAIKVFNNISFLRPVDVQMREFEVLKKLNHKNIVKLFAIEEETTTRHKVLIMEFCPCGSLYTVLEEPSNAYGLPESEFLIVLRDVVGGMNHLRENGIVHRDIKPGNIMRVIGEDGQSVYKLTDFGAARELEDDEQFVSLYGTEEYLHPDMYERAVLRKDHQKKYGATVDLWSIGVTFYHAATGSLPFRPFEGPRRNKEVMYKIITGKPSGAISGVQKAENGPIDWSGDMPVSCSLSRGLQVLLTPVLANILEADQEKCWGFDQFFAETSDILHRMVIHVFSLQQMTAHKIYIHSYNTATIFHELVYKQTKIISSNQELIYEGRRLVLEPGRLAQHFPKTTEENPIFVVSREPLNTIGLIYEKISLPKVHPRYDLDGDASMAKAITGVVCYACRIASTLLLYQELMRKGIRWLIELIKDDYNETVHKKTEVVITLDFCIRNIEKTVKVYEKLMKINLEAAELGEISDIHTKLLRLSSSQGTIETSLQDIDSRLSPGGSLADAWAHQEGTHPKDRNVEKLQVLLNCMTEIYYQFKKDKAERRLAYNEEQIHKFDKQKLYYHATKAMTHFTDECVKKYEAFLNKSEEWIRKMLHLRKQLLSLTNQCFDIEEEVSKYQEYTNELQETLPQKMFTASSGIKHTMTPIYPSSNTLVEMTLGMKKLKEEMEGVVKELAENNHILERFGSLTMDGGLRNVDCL
Method in brief: (§1)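 His-tagged Sf9-expressed kinases at 0.1 or 0.02 μg/ml (TBK1) and 0.1 or 0.015 μg/ml (IKKε) for normal and sensitized formats, with myelin basic protein or casein substrate. ATP was at 2×Km (60 μM TBK1, 32 μM IKKε) plus 0.3 μCi [γ33]ATP. Reactions ran 30-45 min, were captured on P-81 filters, and counts were normalized to DMSO.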

IKKε = biological target: T2, IKKε (Homo sapiens, UniProt Q14164); assay: In-vitro IKKε kinase assay ([γ33]ATP filter-plate); type: biochemical
T2 construct: His-tag; made in house; host or cells: Sf9 insect cells
T2 sequence (Q14164 1-716): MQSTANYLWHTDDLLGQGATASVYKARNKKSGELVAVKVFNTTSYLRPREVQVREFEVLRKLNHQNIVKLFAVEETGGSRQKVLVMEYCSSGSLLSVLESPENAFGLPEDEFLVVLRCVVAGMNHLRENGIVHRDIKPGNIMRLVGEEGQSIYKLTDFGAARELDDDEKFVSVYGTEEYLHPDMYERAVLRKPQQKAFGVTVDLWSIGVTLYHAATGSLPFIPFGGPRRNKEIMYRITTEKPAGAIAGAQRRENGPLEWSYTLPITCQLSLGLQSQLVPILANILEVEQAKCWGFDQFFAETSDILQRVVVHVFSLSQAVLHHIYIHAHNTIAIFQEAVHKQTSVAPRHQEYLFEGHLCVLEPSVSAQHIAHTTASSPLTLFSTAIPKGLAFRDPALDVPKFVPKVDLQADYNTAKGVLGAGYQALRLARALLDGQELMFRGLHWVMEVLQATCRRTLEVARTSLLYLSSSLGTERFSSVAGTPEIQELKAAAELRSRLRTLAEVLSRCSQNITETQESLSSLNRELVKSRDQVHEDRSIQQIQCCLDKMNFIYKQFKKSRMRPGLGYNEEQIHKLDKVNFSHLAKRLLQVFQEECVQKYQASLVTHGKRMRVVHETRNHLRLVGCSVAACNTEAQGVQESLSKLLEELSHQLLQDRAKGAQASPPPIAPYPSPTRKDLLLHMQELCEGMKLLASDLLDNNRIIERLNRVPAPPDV
Method in brief: as §1

[2] = HEK293T cells, 20 hours, text bins, read-out: IC50 for inhibition of the in-situ IKKε-mediated phosphorylation of IRF3
[3] = text bins, read-out: IC50 for inhibition of the kinase activity of TBK1
[4] = text bins, read-out: IC50 for inhibition of the kinase activity of IKKε

| IC50 [1, 2] [nM] | IC50 (TBK1; [3]) [nM] | IC50 (IKKε; [4]) [nM] | IC50 ([1]; HEK293T cells in culture, Table 3, read-out: pIRF3 ELISA IC50) [nM] | IC50 (TBK1; Table 3, read-out: TBK1 IC50) [nM] | IC50 (IKKε; Table 3, read-out: IKKε IC50) [nM] | Structure (SMILES) |
| --- | --- | --- | --- | --- | --- | --- |
| < 100 | < 10 | < 5 | – | – | – | N#Cc1cc(-c2ccnc(Nc3ccc(N4CCOCC4)cc3)n2)ccc1OCC1CC1 [compound 438, 2-(cyclopropylmethoxy)-5-(2-{[4-(morpholin-4-yl)phenyl]amino}pyrimidin-4-yl)benzonitrile] |
| < 100 | < 10 | < 5 | 8 | 0.3 | 0.4 | N#Cc1cc(-c2ccnc(Nc3ccc(N4CCN(CCO)CC4)cc3)n2)ccc1OCC1CC1 [compound 439, 2-(Cyclopropylmethoxy)-5-[2-({4-[4-(2-hydroxyethyl)piperazin-1-yl]phenyl}amino)pyrimidin-4-yl]benzonitrile] |
| < 100 | < 10 | < 5 | – | – | – | COc1cc(-c2ccnc(Nc3ccc(N4CCOCC4)cc3)n2)cc(C#N)c1OC1CCNCC1 [compound 440, 3-Methoxy-5-(2-{[4-(morpholin-4-yl)phenyl]amino}pyrimidin-4-yl)-2-(piperidin-4-yloxy)benzonitrile] |
| < 100 | < 10 | < 5 | – | – | – | CC1(COc2ccc(-c3ccnc(Nc4ccc(N5CCOCC5)cc4)n3)cc2C#N)COC1 [compound 444, 2-[(3-Methyloxetan-3-yl)methoxy]-5-(2-{[4-(morpholin-4-yl)phenyl]amino}pyrimidin-4-yl)benzonitrile] |
| 250 to 500 | < 10 | 5 to 50 | – | – | – | CCC(=O)Nc1ccc(-c2ccnc(Nc3ccc(N4CCOCC4)cc3)n2)cc1C#N [compound 445, N-[2-Cyano-4-(2-{[4-(morpholin-4-yl)phenyl]amino}pyrimidin-4-yl)phenyl] propanamide] |
| < 100 | < 10 | 5 to 50 | – | – | – | N#Cc1cc(-c2ccnc(Nc3ccc(N4CCOCC4)cc3)n2)ccc1NC1CCOCC1 [compound 468, 5-(2-{[4-(morpholin-4-yl)phenyl]amino}pyrimidin-4-yl)-2-(tetrahydro-2H-pyran-4-ylamino) benzonitrile] |

The next lines start with the molecule.

| Structure (SMILES) | IC50 [1, 2] [nM] | IC50 (TBK1; [3]) [nM] | IC50 (IKKε; [4]) [nM] | IC50 ([1]; HEK293T cells in culture, Table 3, read-out: pIRF3 ELISA IC50) [nM] | IC50 (TBK1; Table 3, read-out: TBK1 IC50) [nM] | IC50 (IKKε; Table 3, read-out: IKKε IC50) [nM] |
| --- | --- | --- | --- | --- | --- | --- |
| COc1cc(-c2ccnc(Nc3ccc(N4CCOCC4)cc3)n2)cc(C#N)c1OC1CCN(C(=O)[C@@H](C)O)CC1 [compound 436, 2-({1-[(2R)-2-Hydroxypropanoyl]piperidin-4-yl}oxy)-3-methoxy-5-(2-{[4-(morpholin-4-yl)phenyl]amino}pyrimidin-4-yl)benzonitrile] | < 100 | < 10 | < 5 | – | – | – |
| CC1(COc2ccc(-c3ccnc(Nc4ccc(N5CCN(CCO)CC5)cc4)n3)cc2C#N)COC1 [compound 437, 5-[2-({4-[4-(2-Hydroxyethyl)piperazin-1-yl]phenyl}amino)pyrimidin-4-yl]-2-[(3-methyloxetan-3-yl)methoxy] benzonitrile] | 100 to 250 | < 10 | < 5 | – | – | – |
| COc1cc(Nc2nccc(-c3ccc(OC4CCOCC4)c(C#N)c3)n2)ccc1C(=O)N1CC(N2CCOCC2)C1 [compound 475, 5-{2-[(3-Methoxy-4-{[3-(morpholin-4-yl)azetidin-1-yl]carbonyl}phenyl)amino]pyrimidin-4-yl}-2-(tetrahydro-2H-pyran-4-yloxy)benzonitrile] | < 100 | < 10 | < 5 | – | – | – |
| COc1cc(Nc2nccc(-c3ccc(OC4CCOCC4)c(C#N)c3)n2)ccc1C(=O)N1CCN(CCO)CC1 [compound 476, 5-{2-[(4-{[4-(2-Hydroxyethyl)piperazin-1-yl]carbonyl}-3-methoxyphenyl)amino]pyrimidin-4-yl}-2-(tetrahydro-2H-pyran-4-yloxy)benzonitrile] | < 100 | < 10 | < 5 | – | – | – |
| COc1cc(Nc2nccc(-c3ccc(OC4CCOCC4)c(C#N)c3)n2)ccc1CN1CCN(CCO)CC1 [compound 477, 5-{2-[(4-{[4-(2-Hydroxyethyl)piperazin-1-yl]methyl}-3-methoxyphenyl)amino]pyrimidin-4-yl}-2-(tetrahydro-2H-pyran-4-yloxy)benzonitrile] | < 100 | 10 to 100 | < 5 | – | – | – |
| COCCNCc1ccc(Nc2nccc(-c3ccc(OC4CCOCC4)c(C#N)c3)n2)cc1OC [compound 478, 5-{2-[(3-Methoxy-4-{[(2-methoxyethyl)amino]methyl}phenyl)amino]pyrimidin-4-yl}-2-(tetrahydro-2H-pyran-4-yloxy)benzonitrile] | < 100 | < 10 | < 5 | – | – | – |
| COc1cc(Nc2nccc(-c3ccc(OC4CCOCC4)c(C#N)c3)n2)ccc1CN1CCN(C)CC1 [compound 479, 5-[2-({3-Methoxy-4-[(4-methylpiperazin-1-yl)methyl]phenyl}amino)pyrimidin-4-yl]-2-(tetrahydro-2H-pyran-4-yloxy)benzonitrile] | < 100 | < 10 | < 5 | – | – | – |
| COc1cc(Nc2nccc(-c3ccc(OC4CCOCC4)c(C#N)c3)n2)ccc1CN1C[C@@H](C)O[C@@H](C)C1 [compound 480, 5-{2-[(4-{[(2R,6S)-2,6-Dimethylmorpholin-4-yl]methyl}-3-methoxyphenyl)amino]pyrimidin-4-yl}-2-(tetrahydro-2H-pyran-4-yloxy)benzonitrile] | < 100 | < 10 | < 5 | – | – | – |
| COc1cc(Nc2nccc(-c3ccc(OC4CCOCC4)c(C#N)c3)n2)ccc1CN1CC(N2CCOCC2)C1 [compound 481, 5-{2-[(3-Methoxy-4-{[3-(morpholin-4-yl)azetidin-1-yl]methyl}phenyl)amino]pyrimidin-4-yl}-2-(tetrahydro-2H-pyran-4-yloxy)benzonitrile] | < 100 | < 10 | < 5 | – | – | – |
| COc1cc(Nc2nccc(-c3ccc(OC4CCOCC4)c(C#N)c3)n2)ccc1CN1CC(OC)C1 [compound 482, 5-[2-({3-Methoxy-4-[(3-methoxyazetidin-1-yl)methyl]phenyl}amino)pyrimidin-4-yl]-2-(tetrahydro-2H-pyran-4-yloxy)benzonitrile] | < 100 | < 10 | < 5 | – | – | – |
| COc1cc(Nc2nccc(-c3ccc(OC4CCOCC4)c(C#N)c3)n2)ccc1CN1CC(O)C1 [compound 483, 5-[2-({4-[(3-Hydroxyazetidin-1-yl)methyl]-3-methoxyphenyl}amino)pyrimidin-4-yl]-2-(tetrahydro-2H-pyran-4-yloxy)benzonitrile] | < 100 | < 10 | 5 to 50 | – | – | – |
| COc1cc(Nc2nccc(-c3ccc(OC4CCOCC4)c(C#N)c3)n2)ccc1C(=O)N1CC(OC)C1 [compound 484, 5-[2-({3-Methoxy-4-[(3-methoxyazetidin-1-yl)carbonyl]phenyl}amino)pyrimidin-4-yl]-2-(tetrahydro-2H-pyran-4-yloxy)benzonitrile] | < 100 | 10 to 100 | < 5 | – | – | – |
